In patent US20180327367A1, “MACROCYCLIC BROAD SPECTRUM ANTIBIOTICS” (priority 2015, published 2018):
Converted amounts (≈) assume the structure as drawn.

How the values were obtained:
[1] = tested on: Escherichia coli MC4100 harboring the IMP4213 (E. coli IMP); assay: microbe, parasite or virus in culture; assay type: cell-based; conditions: Escherichia coli, 22 h, read-out: MIC (μg/mL) E. coli IMP, E. coli MC4100 IMP4213, increased outer-membrane permeability; 35° C., 22 hours
Method in brief: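 Ten 2-fold dilutions, from 4 μg/mL or from 0.5 μg/mL depending on protocol, are challenged with bacteria at OD600 0.0005 in Tween-80-supplemented cation-adjusted Mueller Hinton Broth. Plates incubate 22 hours at 35° C per CLSI. The E. coli IMP4213 strain has increased outer-membrane permeability.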

[2] = target: T1, SpsB (Staphylococcus aureus signal peptidase) (Staphylococcus aureus, UniProt P0A070); assay: cell-based; assay type: biochemical; conditions: SpsB IC50, whole-cell S. aureus (USA300 background, overexpressing SpsB) as SpsB source; fluorogenic peptide substrate, kinetic read 30 min
T1 construct: This assay uses a suspension of Staphylococcus aureus cells as a source of SpsB instead of recombinant SpsB protein; endogenous in cells; host or cells: S. aureus, USA300 background, overexpressing SpsB (whole-cell suspension from frozen pellets)
Method in brief: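 Cleavage of an internally quenched (Dabcyl)βAla-KPAKAAE(Edans) peptide, added as 20 μM solution mixed 1:1 with cells, was followed for 30 min at 340/490 nm. SpsB came from a suspension of SpsB-overexpressing USA300 S. aureus in Tween-80-containing PBS buffer. Slopes plotted against 3-fold compound dilutions gave IC50.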

[3] = tested on: Methicillin Resistant Staphylococcus aureus strain USA 300, NRS384; assay: Minimum inhibitory concentration, broth micro-dilution (CLSI), S. aureus; assay type: cell-based; conditions: Staphylococcus aureus, MRSA / NRS 384 / USA300, 22 h, MRSA USA 300 NRS384; 35° C., 22 hours; read-out: MIC (μg/mL) S. aureus
Method in brief: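 Colonies grown 20 hours at 35° C were suspended in cation-adjusted Mueller Hinton Broth with 0.002% Tween-80. Cells were then added to 2-fold compound dilutions starting at 4 or 0.5 μg/mL, at OD600 0.0005.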

[4] = tested on: Escherichia coli ATCC 25922; assay: Minimum inhibitory concentration, broth micro-dilution (CLSI), E. coli; assay type: cell-based; conditions: Escherichia coli, ATCC25922, 22 h, E. coli ATCC 25922; 35° C., 22 hours; read-out: MIC (μg/mL) E. coli

T1 sequence (P0A070 whole entry): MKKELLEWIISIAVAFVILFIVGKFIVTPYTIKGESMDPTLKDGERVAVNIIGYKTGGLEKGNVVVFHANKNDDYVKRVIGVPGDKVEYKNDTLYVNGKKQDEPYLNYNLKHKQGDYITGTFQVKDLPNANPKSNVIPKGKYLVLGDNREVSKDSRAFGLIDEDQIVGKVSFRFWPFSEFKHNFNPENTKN

Compound | MIC [1] [µg/mL] | IC50 [2] [nM] | MIC [3] [µg/mL] | MIC [4] [µg/mL]
Cc1cc(C#Cc2ccccc2)ccc1C(=O)N[C@@H](CCN)C(=O)N(C)[C@@H]1C(=O)N[C@@H](C)C(=O)N[C@H](C(=O)NCC#N)Cc2ccc(OCCN)c(c2)-c2cc1ccc2OCCN [Compound 425] | 0.018 (≈ 0.021 µM) | 1.1 | 0.047 (≈ 0.0549 µM) | 0.63 (≈ 0.736 µM)
Cc1cc(-c2ccc(CC(C)C)cc2)cnc1C(=O)N[C@@H](CCN)C(=O)N(C)[C@@H]1C(=O)N[C@@H](C)C(=O)N[C@H](C(=O)NCC#N)Cc2ccc(OCCN)c(c2)-c2cc1ccc2OCCN [Compound 168] | 0.031 (≈ 0.0349 µM) | 0.8 | 0.063 (≈ 0.0709 µM) | 0.75 (≈ 0.844 µM)
Cc1cc(-c2ccc(C(C)C)cc2)ccc1C(=O)N[C@@H](CCN)C(=O)N(C)[C@@H]1C(=O)N[C@@H](C)C(=O)N[C@H](C(=O)NCC#N)Cc2ccc(OCCN)c(c2)-c2cc1ccc2OCCN [Compound 145] | 0.012 (≈ 0.0137 µM) | 0.59 | 0.047 (≈ 0.0538 µM) | 0.16 (≈ 0.183 µM)
CCCCCCCCCCNCCC(=O)N(C)[C@@H]1C(=O)N[C@@H](C)C(=O)N[C@H](C(=O)NCC#N)Cc2ccc(OCCN)c(c2)-c2cc1ccc2O [Compound 317] | 1 (≈ 1.42 µM) | 0.87 | 0.094 (≈ 0.133 µM) | 64 (≈ 90.7 µM)
CCCCCCCCOc1ccc(C(=O)N[C@@H](CCN)C(=O)N(C)[C@@H]2C(=O)N[C@@H](C)C(=O)N[C@H](C(=O)NCC#N)Cc3ccc(OCCN)c(c3)-c3cc2ccc3OCCN)c(Cl)c1 [Compound 272] | 0.0078 (≈ 0.00862 µM) | 0.7 | 0.047 (≈ 0.052 µM) | 0.13 (≈ 0.144 µM)
CCCCCCCCc1ccc(C(=O)N[C@@H](CCCN)C(=O)N(C)[C@@H]2C(=O)N[C@@H](C)C(=O)N[C@H](C(=O)NCC#N)Cc3ccc(OCCN)c(c3)-c3cc2ccc3OCCN)cc1 [Compound 335] | 0.016 (≈ 0.0184 µM) | 0.56 | 0.031 (≈ 0.0357 µM) | 0.25 (≈ 0.288 µM)
CCCCCCCCCCCC(=O)N[C@@H](C)C(=O)N(C)[C@@H]1C(=O)N[C@@H](C)C(=O)N[C@H](C(=O)NCC#N)Cc2ccc(OCCN)c(c2)-c2cc1ccc2OCCN [Compound 241] | 0.063 (≈ 0.0796 µM) | 1.4 | 0.13 (≈ 0.164 µM) | 6 (≈ 7.59 µM)
CCCCCCCOc1cc(F)c(C(=O)N[C@@H](CCN)C(=O)N(C)[C@@H]2C(=O)N[C@@H](C)C(=O)N[C@H](C(=O)NCC#N)Cc3ccc(OCCN)c(c3)-c3cc2ccc3OCCN)c(Cl)c1 [Compound 291] | 0.0078 (≈ 0.00859 µM) | 1.3 | 0.063 (≈ 0.0693 µM) | 0.19 (≈ 0.209 µM)
Cc1cc(CCC2CCCCC2)ccc1C(=O)N[C@@H](CCN)C(=O)N(C)[C@@H]1C(=O)N[C@@H](C)C(=O)N[C@H](C(=O)NCC#N)Cc2ccc(OCCN)c(c2)-c2cc1ccc2OCCN [Compound 204] | 0.0078 (≈ 0.00901 µM) | 1.2 | 0.031 (≈ 0.0358 µM) | 0.19 (≈ 0.219 µM)
Cc1nn(-c2ccc(CC(C)C)cc2)cc1C(=O)N[C@@H](CCN)C(=O)N(C)[C@@H]1C(=O)N[C@@H](C)C(=O)N[C@H](C(=O)NCC#N)Cc2ccc(OCCN)c(c2)-c2cc1ccc2OCCN [Compound 443] | 0.047 (≈ 0.0535 µM) | 0.9 | 0.094 (≈ 0.107 µM) | 4 (≈ 4.56 µM)
CCCCc1ccc(-c2ccc(C(=O)N[C@@H](CC3CCNCC3)C(=O)N(C)[C@@H]3C(=O)N[C@@H](C)C(=O)N[C@H](C(=O)NCC#N)Cc4ccc(OCCN)c(c4)-c4cc3ccc4OCCN)cc2)cc1 [Compound 477] | 0.063 (≈ 0.0679 µM) | 0.68 | 0.063 (≈ 0.0679 µM) | 4 (≈ 4.31 µM)
CCCCc1ccc(-c2ccc(C(=O)N[C@@H](CCCCN)C(=O)N(C)[C@@H]3C(=O)N[C@@H](C)C(=O)N[C@H](C(=O)N[C@@H](C)C#N)Cc4ccc(OCCN)c(c4)-c4cc3ccc4OCCN)cc2)cc1 [Compound 332] | < 0.063 | 0.56 | 0.13 (≈ 0.142 µM) | 3 (≈ 3.27 µM)
CCCCC#CCOc1ccc(C(=O)N[C@@H](CCN)C(=O)N(C)[C@@H]2C(=O)N[C@@H](C)C(=O)N[C@H](C(=O)NCC#N)Cc3ccc(OCCN)c(c3)-c3cc2ccc3OCCN)c(Cl)c1 [Compound 283] | 0.012 (≈ 0.0135 µM) | 0.87 | 0.063 (≈ 0.0711 µM) | 1 (≈ 1.13 µM)
CCCCCCCc1cc(F)c(C(=O)N[C@@H](CCN)C(=O)N(C)[C@@H]2C(=O)N[C@@H](C)C(=O)N[C@H](C(=O)NCC#N)Cc3ccc(OCCN)c(c3)-c3cc2ccc3OCCN)c(F)c1 [Compound 190] | 0.02 (≈ 0.0228 µM) | 0.7 | 0.063 (≈ 0.0719 µM) | 0.31 (≈ 0.354 µM)
